Reference: patent US20260000685A1, “PHARMACEUTICAL COMPOSITION FOR PREVENTING OR TREATING DEGENERATIVE BRAIN DISEASES, COMPRISING CANNABINOIDS AS ACTIVE INGREDIENT, AND USES THEREOF” (NEOCANNBIO CO., LTD., priority 2022, published 2026)

Assays:
[1] = tested on: p-TrkB (Tyrosine receptor kinase B); assay: Western blot of p-TrkB in hippocampal tissues of animal model; assay type: in vivo, ICR mice; details: day 19; compared to Aβ1-42 treated group; FIG. 17
Protocol: (§1) To conduct Western blotting, tissues were homogenized in radioimmunoprecipitation assay buffer (Cell Signaling) to acquire tissue lysates. Tissue protein concentrations were determined using the Bio-Rad protein assay (Bio-Rad, Hercules, CA, USA), and Western blot analysis was conducted using 80-120 μg of protein. Next, the Western blotting samples prepared using the proteins were separated using 12% SDS-PAGE and transferred to a polyvinylidene fluoride membrane (PVDF) (Merck Millipore, Burlington, MA, USA; 0.4 μm). The PVDF was blocked with tris-buffered saline including 5% bovine serum albumin and Tween-20, and incubated with primary antibodies overnight at 4° C. After primary antibody incubation, the samples were incubated with HRP-conjugated secondary antibody (Sigma; 1:5000) for 1 hour at room temperature, and immunodetection was conducted using an enhanced chemiluminescence detection kit (GE Healthcare, Chicago, IL, USA).
(§2) Specifically, hippocampal tissues were acquired on day 19 from the animal models created in Example 7 above (PBS treated group, Aβ1-42 treated group, CBDA treated group, and THCA treated group), and Western blot analysis was conducted on the hippocampal tissues to evaluate the expression levels of BDNF, p-CREB, and p-TrKB.

[2] = tested on: primary cortical neuron cells; assay: Intracellular calcium concentration in neuronal cells (fluo-4 AM fluorescence imaging); assay type: cell-based; details: CBDA (6.25 μM), THCA (12.5 μM), THC (12.5 μM) with Aβ1-42 (5 μM), 24 hours; compared to Aβ1-42 alone; FIG. 8 and 9
Protocol: Specifically, primary cortical neuron cells were seeded in 96-wells at 5×10^5 cells per well and cultured for 6 days. […] Next, to measure the concentration of calcium ions in neuronal cells by detecting Ca^2+ using fluorescence imaging, the cells were washed with PBS and treated with 10 μM Ca^2+ indicator fluo-4 AM (Thermo) for […]. The stained sections were washed with PBS, covered with Prolong Gold Antifide Reagent (Invitrogen, Carlsbad, CA, USA) including DAPI nuclear stain, and observed using a microscope (Carl Zeiss, Oberkochen, Germany). Fluo-4 AM fluorescence signal intensity was measured using the Image J analysis program (National Institute of Health, Bethesda, […], USA).

primary neuronal cells = assay: Inhibition of Aβ1-42-induced neuron apoptosis (MTS cell viability); assay type: cell-based, ICR mice; details: for cell survival rate level: different concentrations with Aβ1-42 (5 μM), 24 hours, compared to control treated with Aβ1-42 alone, FIG. 2; for neuron apoptosis inhibition efficacy: same concentration of CBDA, CBD, THCA and THC, Memantine as positive control, FIG. 3
Protocol: Specifically, primary neuronal cells derived from ICR mice were seeded in 96-wells at 5×10^5 cells per well and cultured for 6 days. Afterwards, the six compounds of Example 1 above were treated at different concentrations and Aβ1-42 (5 μM) was treated to induce neuron apoptosis, and the cells were treated together for 24 hours. Afterwards, a MTS solution was added to the medium and incubated for 2 hours. Cytotoxicity (cell viability) was measured using a microplate spectrophotometer (Bio-Tek Power Wave XS, Winooski, VT, USA), and absorbance was measured at 490 nm.
Next, the neuron apoptosis inhibition efficacy for the same concentration of CBDA, CBD, THCA and THC was evaluated using the same method as above. Memantine, known as an Alzheimer's treatment, was used as a positive control group.

[3] = tested on: Alzheimer's animal model (Aβ1-42 treated mice); assay: Novel object recognition test (NOR) in Aβ1-42 Alzheimer's animal model; assay type: in vivo, ICR mice; details: compared to mice treated with only Aβ1-42; FIG. 14
Protocol: Female ICR mice (8 weeks old) used in the experiment were purchased from Coretech (Pyeongtaek, Korea). Mice were housed in the animal care facility of the Korea Institute of Science and Technology (KIST) (temperature 22±2° C., humidity 40-60%, 12-hour light/dark cycle). Mice were housed in an environment with free access to food and water. All animal experiments were conducted in accordance with the protocol approval of the Animal Ethics Committee of our institution.
Next, to create an animal model, mice were randomly selected and divided into four groups as follows: PBS treated group (PBS+PBS), Aβ1-42 treated group (Aβ1-42 +PBS) (Alzheimer's animal model), CBDA treated group (Δβ1-42+CBDA (6.25 µM, 3 μL/mouse)), and THCA treated group (Δβ1-42+THCA (12.5 μM, 3 μL/mouse)).
After anesthetizing the isolated mice by intraperitoneal (i.p.) injection of avertin (250 mg/kg), the mice were fixed in a stereotaxic apparatus, and CBDA, THCA, Aβ1-42, or PBS (3 μl/15 min/mouse) were gradually delivered to the hippocampus using a Hamilton syringe (coordinates of bregma: mediolateral (ML)=1.30 mm, anteroposterior (AP)=−2.00 mm, dorsoventral=−2.20 mm).
First, the Novel Object Recognition Test (NOR) was conducted to examine a natural tendency of the experimental mice to explore novel stimuli. For this purpose, during the habituation session conducted 2 days before the test, the mice were allowed to explore the test environment consisting of an opaque custom-made Plexiglas box (35 cm×45 cm×25 cm) for 10 minutes. The sample object phase was conducted 24 hours later. Two identical white circular cylinders (sample objects) were placed on opposite edges of the test environment, and mice were given access to the objects for 10 minutes. After 4 hours (novel object stage), one of the sample objects in the test environment was replaced with a similarly sized novel object (colored miniature animal), and the mouse was allowed to contact this novel arrangement for 5 minutes. The time when the mouse's nose stayed <1 cm away from the object was considered the time the mouse explored the object, excluding the time when the mouse stood on the object. The identification rate was calculated as the time spent exploring the novel object relative to the time spent exploring the two objects.

[4] = tested on: phosphorylated tau (p-Tau); assay: Western blot of Tau/p-Tau in hippocampal tissues of animal model; assay type: in vivo, ICR mice; details: day 19; compared to Aβ1-42 treated group; FIG. 16
Protocol: as §1
as §2, with “Tau” for “BDNF, p-CREB,”, “phosphorylated Tau (p-Tau).” for “p-TrKB.”

amyloid beta (Aβ) = assay: Western blot of Aβ in hippocampal tissues of animal model; assay type: in vivo, ICR mice; details: day 19; compared to Aβ1-42 treated group; FIG. 15
Protocol: as §1
as §2, with “APP (Amyloid Precursor Protein), polymeric Aβ,” for “BDNF, p-CREB,”, “oligomeric Aβ.” for “p-TrKB.”

[5] = tested on: BDNF (brain-derived neurotrophic factor); assay: Western blot of BDNF in hippocampal tissues of animal model; assay type: in vivo, ICR mice; details: day 19; compared to Aβ1-42 treated group; FIG. 17
Protocol: as §1, §2

Structure (SMILES) | expression level of p-TrKB in hippocampal tissues [1] | intracellular calcium ion concentration [2] | cell survival rate level (primary neuronal cells) | neuron apoptosis inhibition efficacy (primary neuronal cells) | identification rate (NOR) [3] | time investigating the novel object [3] | expression level of p-Tau in hippocampal tissues [4] | phosphorylation level of p-Tau in hippocampal tissues [4] | expression level of Aβ in hippocampal tissues (amyloid beta (Aβ)) | expression level of BDNF in hippocampal tissues [5]
CCCCCc1cc2c(c(O)c1C(=O)O)[C@@H]1C=C(C)CC[C@H]1C(C)(C)O2 [THCA, (6aR, 10aR)-1-Hydroxy-6,6,9-trimethyl-3-pentyl-6a,7,8,10a-tetrahydro-6H-benzo[c]chromene-2-carboxylic acid] | significantly increased | significantly reduced | significantly increased | better neuron apoptosis inhibition efficacy | significantly increased | spent more time | significantly reduced | significantly reduced | significantly reduced | significantly increased
C=C(C)[C@@H]1CCC(C)=C[C@H]1c1c(O)cc(CCCCC)c(C(=O)O)c1O [CBDA] | significantly increased | significantly reduced | significantly increased | better neuron apoptosis inhibition efficacy | significantly increased | spent more time | significantly reduced | significantly reduced | significantly reduced | significantly increased
